BindingDB's records for patent US20240270732 (Chengdu Biobel Biotechnology Co., 2024)

Target: T1, Receptor-interacting serine/threonine-protein kinase 1 (Homo sapiens, UniProt Q13546)
T1 sequence (Q13546 whole entry): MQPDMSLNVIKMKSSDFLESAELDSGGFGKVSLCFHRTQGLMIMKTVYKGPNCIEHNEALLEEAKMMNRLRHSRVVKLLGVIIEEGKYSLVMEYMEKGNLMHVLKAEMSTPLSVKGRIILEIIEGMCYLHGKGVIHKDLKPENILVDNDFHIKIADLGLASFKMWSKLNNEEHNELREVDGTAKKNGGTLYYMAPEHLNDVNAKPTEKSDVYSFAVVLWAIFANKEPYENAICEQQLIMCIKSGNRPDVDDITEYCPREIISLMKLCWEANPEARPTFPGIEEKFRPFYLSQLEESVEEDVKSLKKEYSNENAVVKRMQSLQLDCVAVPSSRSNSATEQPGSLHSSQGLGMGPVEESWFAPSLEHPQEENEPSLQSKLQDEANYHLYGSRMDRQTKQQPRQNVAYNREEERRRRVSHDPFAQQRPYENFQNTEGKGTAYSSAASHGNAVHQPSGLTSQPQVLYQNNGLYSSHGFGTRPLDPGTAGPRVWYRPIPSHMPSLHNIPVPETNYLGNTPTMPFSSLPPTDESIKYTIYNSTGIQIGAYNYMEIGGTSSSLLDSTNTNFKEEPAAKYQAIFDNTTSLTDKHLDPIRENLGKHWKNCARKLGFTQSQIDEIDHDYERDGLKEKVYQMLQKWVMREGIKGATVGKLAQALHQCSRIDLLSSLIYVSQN
Experiment: Inhibitory Activity Assay
Summary of the method: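 Compounds were titrated 22-point, 1:1.5 from 2 μM top concentration, in 50 mM Hepes pH 7.5, 50 mM NaCl, 30 mM MgCl2, 1 mM DTT, 0.02% CHAPS, 0.5 mg/mL BSA. After the kinase reaction, ADP-Glo reagent was added for 1 h at room temperature, then detection solution for 30 min, and luminescence was read.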

Structure (SMILES)	IC50
C#CCN1CCN(CC#Cc2ccc3c(c2)N(C)C(=O)[C@@H](NC(=O)c2n[nH]c(Cc4ccccc4)n2)CO3)CC1 [US20240270732, Compound I-10]	3.21 nM
C#Cc1ccc2c(c1)N(C)C(=O)[C@@H](NC(=O)c1ncn(Cc3ccccc3)n1)[C@@H](C)O2 [US20240270732, Compound I-120]	10.8 nM
C#CCN1CCN(CC#Cc2ccc3c(c2)NC(=O)[C@@H](NC(=O)c2n[nH]c(Cc4ccccc4)n2)CO3)CC1 [US20240270732, Compound I-20]	9.44 nM
C[C@H]1Oc2ccc(C#Cc3ccncc3)cc2N(C)C(=O)[C@H]1NC(=O)c1n[nH]c(Cc2ccccc2)n1 [US20240270732, Compound I-109]	4.26 nM
C[C@H]1Oc2ccc(C#Cc3cccc([N+](=O)[O-])c3)cc2N(C)C(=O)[C@H]1NC(=O)c1n[nH]c(Cc2ccccc2)n1 [US20240270732, Compound I-115]	7.35 nM
C[C@H]1Oc2ccc(C#CCOCCOCCOCCOCCOCC#CC#CCOCCOCCOCCOCCOCC#Cc3ccc4c(c3)N(C)C(=O)[C@@H](NC(=O)c3n[nH]c(Cc5ccccc5)n3)[C@@H](C)O4)cc2N(C)C(=O)[C@H]1NC(=O)c1n[nH]c(Cc2ccccc2)n1 [US20240270732, Compound I-87]	6.32 nM
C[C@H]1Oc2ccc(C#CCN3CCN(CC#Cc4ccc5c(c4)N(C)C(=O)[C@@H](NC(=O)c4cn(Cc6ccccc6)nn4)[C@@H](C)O5)CC3)cc2N(C)C(=O)[C@H]1NC(=O)c1cn(Cc2ccccc2)nn1 [US20240270732, Compound I-54]	14.7 nM
C#CCOCCOCCOCCOCCOCC#Cc1ccc2c(c1)N(C)C(=O)[C@@H](NC(=O)c1n[nH]c(Cc3ccccc3)n1)CO2 [US20240270732, Compound I-82-2]	7.15 nM
C#CCN1CCN(CC#Cc2ccc3c(c2)N(C)C(=O)[C@@H](NC(=O)c2cc(Cc4ccccc4)on2)[C@@H](C)O3)CC1 [US20240270732, Compound I-45]	14.2 nM
COCCOCCOCCOCCOCC#Cc1ccc2c(c1)N(C)C(=O)[C@@H](NC(=O)c1n[nH]c(Cc3ccccc3)n1)[C@@H](C)O2 [US20240270732, Compound I-99]	2.39 nM
CN1C(=O)[C@@H](NC(=O)c2n[nH]c(Cc3ccccc3)n2)COc2ccc(C#CCOCCOCCOCCOCCOCC#CC#CCOCCOCCOCCOCCOCC#Cc3ccc4c(c3)N(C)C(=O)[C@@H](NC(=O)c3n[nH]c(Cc5ccccc5)n3)CO4)cc21 [US20240270732, Compound I-88]	6.58 nM
C#CCN1CCN(CC#Cc2ccc3c(c2)N(C)C(=O)[C@@H](NC(=O)c2n[nH]c(Cc4ccccc4)n2)[C@@H](C)O3)CC1 [US20240270732, Compound I-14]	4.79 nM
CN1C(=O)[C@@H](NC(=O)c2n[nH]c(Cc3ccccc3)n2)COc2ccc(C#CCN3CCN(CC#Cc4ccc5c(c4)N(C)C(=O)[C@@H](NC(=O)c4ncn(Cc6ccccc6)n4)CO5)CC3)cc21 [US20240270732, Compound I-13]	3.22 nM
C#CCN1CCN(CC#Cc2ccc3c(c2)N(C)C(=O)[C@@H](NC(=O)c2cn(Cc4ccccc4)cn2)CO3)CC1 [US20240270732, Compound I-61]	8.43 nM
COCCOCCOCCOCCOCC#Cc1ccc2c(c1)N(C)C(=O)[C@@H](NC(=O)c1ncn(Cc3ccccc3)n1)[C@@H](C)O2 [US20240270732, Compound I-101]	2.54 nM
C#CCN1CCN(CC#Cc2ccc3c(c2)N(C)C(=O)[C@@H](NC(=O)c2n[nH]c(Cc4ccccc4)n2)[C@H](C)O3)CC1 [US20240270732, Compound I-18]	57.7 nM
C#CCN1CCN(CC#Cc2ccc3c(c2)N(C)C(=O)[C@@H](NC(=O)c2n[nH]c(Cc4ccncc4)n2)[C@@H](C)O3)CC1 [US20240270732, Compound I-65]	20.7 nM
C#CCN1CCN(CC#Cc2ccc3c(c2)N(C)C(=O)[C@@H](NC(=O)c2nnn(Cc4ccccc4)n2)[C@@H](C)O3)CC1 [US20240270732, Compound I-55]	8.91 nM
C[C@H]1Oc2ccc(C#Cc3cccnc3)cc2N(C)C(=O)[C@H]1NC(=O)c1n[nH]c(Cc2ccccc2)n1 [US20240270732, Compound I-111]	6.69 nM
COCCOCCOCCOCCOCC#Cc1ccc2c(c1)N(C)C(=O)[C@@H](NC(=O)c1n[nH]c(Cc3ccccc3)n1)CO2 [US20240270732, Compound I-100]	1.47 nM
CN1C(=O)[C@@H](NC(=O)c2n[nH]c(Cc3ccccc3)n2)COc2ccc(C#CCN3CCN(CC#CC#CCN4CCN(CC#Cc5ccc6c(c5)N(C)C(=O)[C@@H](NC(=O)c5n[nH]c(Cc7ccccc7)n5)CO6)CC4)CC3)cc21 [US20240270732, Compound I-92]	5.89 nM
C[C@H]1Oc2ccc(C#CCN3CCN(CC#CC#CCN4CCN(CC#Cc5ccc6c(c5)N(C)C(=O)[C@@H](NC(=O)c5ncn(Cc7ccccc7)n5)[C@@H](C)O6)CC4)CC3)cc2N(C)C(=O)[C@H]1NC(=O)c1ncn(Cc2ccccc2)n1 [US20240270732, Compound I-93]	5.73 nM
C[C@H]1Oc2ccc(C#CCN3CCN(CC#Cc4ccc5c(c4)N(C)C(=O)[C@@H](NC(=O)c4n[nH]c(Cc6ccccc6)n4)CO5)CC3)cc2N(C)C(=O)[C@H]1NC(=O)c1n[nH]c(Cc2ccccc2)n1 [US20240270732, Compound I-3]	7.22 nM
C[C@H]1Oc2ccc(C#CCN3CCN(CC#Cc4ccc5c(c4)N(C)C(=O)[C@@H](NC(=O)c4n[nH]c(Cc6ccncc6)n4)[C@@H](C)O5)CC3)cc2N(C)C(=O)[C@H]1NC(=O)c1n[nH]c(Cc2ccncc2)n1 [US20240270732, Compound I-66]	18.8 nM
C#CCN1CCN(CC#Cc2ccc3c(c2)N(C)C(=O)[C@@H](NC(=O)c2cn(Cc4ccccc4)cn2)[C@@H](C)O3)CC1 [US20240270732, Compound I-59]	10.2 nM
C[C@H]1Oc2ccc(C#CCN3CCN(CC#Cc4ccc5c(c4)N(C)C(=O)[C@@H](NC(=O)c4n[nH]c(Cc6ccccc6)n4)[C@@H](C)O5)CC3)cc2N(C)C(=O)[C@H]1NC(=O)c1cn(Cc2ccccc2)cn1 [US20240270732, Compound I-8]	9.5 nM
